Data reported in US20250051361A1, “5,6,7,8-TETRAHYDRO-2,6-NAPHTHYRIDINE DERIVATIVES AS CANCER THERAPEUTICS” (VRise Therapeutics, Inc., priority 2021, published 2025).
Counter-ions that a name gives are not always drawn.

Tests used:
human KRAS G12D protein = target: T1, human KRAS G12D protein (Homo sapiens, UniProt P01116, G12D); experiment: HTRF-based nucleotide exchange assay detecting GTP binding to K-Ras; format: biochemical; details: human KRAS G12D (amino acid 2-169), SOS1 mediated exchange
T1 construct: A human KRAS G12D protein (corresponding to amino acid 2-169)
Description: Test 3: Nucleotide Exchange Assay HTRF-based nucleotide exchange assay detecting GTP binding to K-Ras A human KRAS G12D protein (corresponding to amino acid 2-169) was mixed with a a-GST Tb antibody (1.5× solution) and 10 uL of the solution was added to the reaction wells). Compounds (each 10 concentrations or any other concentration of choice at 3-fold or fold of choice for serial dilutions with a starting concentration of […] or or 100 μM or 50 uM) were then delivered to the reaction wells using acoustic dispenser (Echo, Labcyte) and incubated with the Kras/aGST-Tb antibody for 1-hour at room temperature. […] HTRF based SOS1 mediated exchange of GDP to GTP was measured on a microplate reader […] (BMG Labtech) at an excitation wavelength of 337 nm and emission wavelengths of 665 and 620 nm. No-SOS1 reaction or highest control compound concentration was used as blank and % inhibition was calculated and/or IC50 was determined using Sigmoidal dose response (variable slope) equation.

HPAC cells = experiment: In vitro cell proliferation assay in HPAC cell line; format: cell-based; details: Homo sapiens; for inhibition at 3 µM: TC1: Test Concentration of 3 uM; for inhibition at 10 µM: TC2: Test Concentration of 10 uM
Description: (§1) Test 1: In Vitro Cell Proliferation Assay in HPAC and AGS Cell Lines
(§2) Growth inhibition assays was carried out using 10% FBS supplemented media. Cells are to be seeded at a concentration of 2000-3,000 cells/well in a 96-well plate. Test compounds at a concentration range from 0.1 to 30 uM will be added after 24 hours. Growth will be assessed using the MTT or CCK-8 kit for measuring reduction at 0 h (prior to the addition of the test compound) and 72 to 96 hours after the addition of test compound. Absorbance read on a BIO-RAD iMark Microplate or any equivalent micloplate reader at a wavelength of 450 nm to 600 nm. Data will be analyzed and percent inhibition due to the test compound compared to the control is calculated accordingly.

AGS cells = experiment: In vitro cell proliferation assay in AGS cell line; format: cell-based; details: Homo sapiens; for inhibition at 3 µM: TC1: Test Concentration of 3 uM; for inhibition at 10 µM: TC2: Test Concentration of 10 uM
Description: as §1, §2

CT-26 = experiment: In vitro cell proliferation assay in KRASG12 cell lines (CT-26); format: cell-based; details: Mus musculus, CT26; Cell Line CT-26; Cell Titer-Glo, 3 day (2D) or 7 day (3D)
Description: Test 2: In Vitro Cell Proliferation Assay in KRASG12 Cell lines Growth inhibition assays was carried out using 10% FBS supplemented media. Cells were seeded at a desired concentration of 1000-2,000 cells/well in a well plate with desired number of wells. Test compounds at a desired concentration range were added after 24 hours. Growth was assessed using the Cell Titer-Glo (CTG, Cell Signaling) for measuring reduction at 0 h (prior to the addition of the test compound) and 3 day (2D) or 7 day (3D) after the addition of test compound. Absorbance read on a BIO-RAD iMark Microplate or any equivalent microplate reader at a predetermined a wavelength for e.g. 450 nm. Data was be analysed and percent inhibition and/or IC50 for each test compound is calculated accordingly.

T1 sequence (P01116 2-169 isoform P01116-2 G12D): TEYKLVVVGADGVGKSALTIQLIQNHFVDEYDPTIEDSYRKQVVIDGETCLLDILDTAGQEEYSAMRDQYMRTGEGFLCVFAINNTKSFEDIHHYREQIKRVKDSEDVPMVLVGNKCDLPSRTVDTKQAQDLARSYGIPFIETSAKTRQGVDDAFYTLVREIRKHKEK

`CN1CCC[C@H]1COc1nc(N2CC3CCC(C2)N3)c2c(c1C#N)CN(c1cccc3cccc(Cl)c13)CC2` [Ex 16, 1-(3,8-diazabicyclo[3.2.1]octan-3-yl)-6-(8-chloronaphthalen-1-yl)-3-(((S)-1-methylpyrrolidin-2-yl)methoxy)-5,6,7,8-tetrahydro-2,6-naphthyridine-4-carbonitrile Hydrochloride] showed an IC50 (human KRAS G12D protein) of 200 to 1000 nM, an inhibition at 3 µM (HPAC cells) of 50 to 75% and an inhibition at 10 µM (HPAC cells) of 75 to 100%. The inhibition at 3 µM (AGS cells) was 50 to 75%, the inhibition at 10 µM (AGS cells) was 50 to 75% and the IC50 (CT-26) was under 2500 nM.
`N#Cc1c(OCC23CCCN2C[C@H](F)C3)nc(N2CC3CCC(C2)N3)c2c1CN(c1cccc3cccc(Cl)c13)CC2` (stereo partly drawn) [Ex 17, 1-(3,8-diazabicyclo[3.2.1]octan-3-yl)-6-(8-chloronaphthalen-1-yl)-3-(((2R)-2-fluorotetrahydro-1H-pyrrolizin-7a(5H)-yl)methoxy)-5,6,7,8-tetrahydro-2,6-naphthyridine-4-carbonitrile Hydrochloride] was tested, and the IC50 (human KRAS G12D protein) was 25 to 50 nM, the inhibition at 3 µM (HPAC cells) was 25 to 50% and the inhibition at 10 µM (HPAC cells) was 75 to 100%. For the same compound, the inhibition at 3 µM (AGS cells) was 25 to 50%, the inhibition at 10 µM (AGS cells) was 75 to 100% and the IC50 (CT-26) was 2500 to 5000 nM.
With `N#Cc1c(OCC23CCCN2C[C@H](F)C3)nc(N2CC3CCC(C2)N3)c2c1CN(c1cc(O)cc3ccccc13)CC2` (stereo partly drawn) [Ex 25, 1-(3,8-diazabicyclo[3.2.1]octan-3-yl)-3-(((2R)-2-fluorotetrahydro-1H-pyrrolizin-7a(5H)-yl)methoxy)-6-(3-hydroxynaphthalen-1-yl)-5,6,7,8-tetrahydro-2,6-naphthyridine-4-carbonitrile Hydrochloride] the IC50 (human KRAS G12D protein) was under 25 nM, the inhibition at 3 µM (HPAC cells) was 25 to 50% and the inhibition at 10 µM (HPAC cells) was 75 to 100%. The inhibition at 3 µM (AGS cells) was 75 to 100%, the inhibition at 10 µM (AGS cells) was 75 to 100% and the IC50 (CT-26) was 5000 to 10000 nM.
